Laboratory results from US6642201B1, “Use of a dipeptide for stimulating repair processes” (priority 1998, dated 2003).
Marks after values point to notes of the source that are not given here. Where a SMILES comes first, the peptide text is derived from it.

Key:
white outbred male mice = assay: Acute toxicity according to Kerber, single intramuscular administration; assay type: in vivo
Experimental: The study of the general toxic activity of dipeptide L-Lys-L-Glu was conducted in compliance with “The rules of pre-clinical estimation of safety of pharmacological Substances (GLP)”—
The purpose of the study consisted of the identification of tolerable toxic doses of the drug, estimation of stage and character of pathological alterations in various organs and systems of the organism and determination of correlation between toxic effect related to dose and duration of drug application.
The estimation of acute toxicity of dipeptide L-Lys-L-Glu was conducted according to Kerber. The study was carried out on 66 white outbred male mice with body weight 20-23 g, kept under standard regimen and fed with standard chow in the vivarium. The animals were divided at random into 6 equal groups of 11 mice each. The animals were exposed to single administration of the drug intramuscularly, 0.25 ml in doses 1 mg/kg, 2 mg/kg, 3 mg/kg, 4 mg/kg, 5 mg/kg, several thousand times exceeding therapeutic dose recommended for clinical trial. Control animals were administered sodium chloride solution in the same amount.

rats = assay: Chronic toxicity, daily intramuscular administration for 6 months; assay type: in vivo; details: i.m. daily 0.3, 1, 3 mg/kg for 6 months
Experimental: Chronic toxicity of L-Lys-L-Glu dipeptide obtained by the claimed method was studied during its longitudinal administration to rats with body weight […]. The animals of experimental groups were exposed daily to single intramuscular administration of the substance in doses 1 mg/kg, 0.3 mg/kg, 3 mg/kg in 0.5 ml of sodium chloride solution for 6 months. There was analyzed animal behavior, as well as chow and water consumption, condition of hairy and of mucous surfaces. The animals were weighed daily during the first 3 months of the experiment and then once a month. In 3 months after the onset of administration and upon completion of the experiment hematological and biochemical examinations functions of cardiovascular system, liver, pancreas. kidney, and adrenal gland were conducted and estimated. Upon the termination of the drug administration some animals were exposed to pathomorphological examination with the purpose of studying the state of various departments of the brain and spinal marrow, heart, aorta, lungs, liver, organs of endocrine and immune systems.

[1] = tested on: sluggish-granulating wounds and phlegmon of the maxillofacial zone; assay: Clinical complex treatment of pyo-inflammatory diseases of different localization; assay type: in vivo; details: patients, 1 μkg i.m. every day during ten days
Experimental: 1 μkg of the preparation was injected intramuscularly, every day during ten days. Effectiveness of the treatment was evaluated in dynamics according to the changes in activity of wound enzymes and time of healing.

[2] = tested on: purulent incised crushed wounds of the femural soft tissues; assay: Healing of purulent incised crushed wounds of the soft tissues; assay type: in vivo, shinshilla rabbits; design: key to Fibroblasts / Histiocytes / Leukocyles / Macrophases / Necrosis: 1 point - absent; 2 points - single (traces); 3 points - few; 4 points - diffuse (moderately); 5 points - many-,; 6 points - very many
Description: The efficacy of L-Lys-L-Glu dipeptide was estimated on the model of purulent incised crushed wounds of the femural soft tissues in shinshilla rabbits of both sexes with body weight 2-3 kg. Therefore, the rabbits underwent shaving in the area of femural soft tissues with subsequent incision 5 cm long and 2 sm deep. Soft tissues (muscles, subcutaneous fat) were crushed with Kocher 's forcepts and infected with the pathogenic mixture Staphylococcus aureus, strain 186. Afterwards, the wound was sutured. In 72 hours the sutures were lifted; and the wound was treated with 3% solution of hydrogen peroxide.
The animals of experimental group were injected intramuscularly every day for five days with dipeptide L-Lys-L-Glu in a single dose 1 μkg per injection. Control rabbits were injected with sodium chloride solution according to the same scheme. In the process of treatment the wounds were treated with antiseptic remedies for external use.
The estimation of L-Lys-L-Glu dipeptide efficacy in the dynamics of the inflammatory process regression was based on the terms of crust rejection and wound clearance from the pyo-necrotic mass, and appearance of the granular tissue in the wound and beginning of edge epithelization. […] The activity of tissue enzymes was also estimated (5,6,7).

regenerating liver cells = assay: Compensatory regeneration of the liver after partial hepatectomy; assay type: in vivo, white outbred male rats
Experimental: The research has been conducted on 26 white outbred male rats weighing 150-200 grams. The animals were divided into thee following groups:
3 group—rats which had undergone the operation and were subsequently (2 and 24 hours after the operation) administered two subcutaneous injections of L-Lys-L-Glu dipeptide (0,1 μkg per rat).
At the same time, the animals of the first and second groups were made injections of the same volume of the […]. The extracted liver was preserved formalin.
The rats, which had been operated on, were killed by means of ether 32 and 96 hours after the operation. The rats from the control group were killed too, simultaneously. Their livers were preserved in formalin. After staining the preparations with hematoxilin-eosin, the mitotic index in the liver cells was defined, as well as the quantity of polyploid cells in the S-phase cell cycle (the quantity of dividing cells).

[3] = rabbits, 1 μkg i.m. daily 5 days
[4] = rabbits, 1 μkg i.m. daily 5 days, day 6
[5] = rabbits, 1 μkg i.m. daily 5 days, day 14
[6] = rabbits, 1 μkg i.m. daily 5 days, day 21
[7] = rabbits, 1 μkg i.m. daily 5 days, day 29
[8] = rabbits, 1 μkg i.m. daily 5 days, day 40
[9] = 32 hours After partial hepatectomy, 0,1 μkg per rat s.c. at 2 and 24 hours
[10] = 32 hours group, Before (pre-operation index)
[11] = 96 hours After partial hepatectomy, 0,1 μkg per rat s.c. at 2 and 24 hours
[12] = 96 hours group, Before (pre-operation index)

NCCCC[C@H](N)C(=O)N[C@@H](CCC(=O)O)C(=O)O [L-Lys-L-Glu dipeptide, L-lysil-L-glutamic acid] (H-Lys-Glu-OH)
toxic effects (white outbred male mice; doses several thousand times exceeding the therapeutic): does not induce any toxic effects
changes in general state, behavior, locomotor activity, integument, physiological discharges (white outbred male mice; mice, single i.m. 1-5 mg/kg, 72 hours and 14 days): No changes in the general state, behavior, locomotor activity, hairy or skin integument or physiological discharges
animal deaths (white outbred male mice; mice, single i.m. 1-5 mg/kg, in 72 hours and in 14 days): none of the animals in either of the groups died
side effects, chronic toxicity (rats; doses exceeding therapeutic 100-1000 times): absence of side effects
pathological changes (general state, blood indices, intrinsic organs, cardio-vascular, respiratory, liver and kidney functions) (rats; rats): no pathological changes
activity of wound enzymes [1]: increased the activity of wound ferments in the first phase of the wound process
clearance of the wounds from necrotic tissues [1]: accelerate clearance of the wounds from necrotic tissues
treatment period [1]: reduction of the treatment period
activity of acid phosphatase in histiocytes ([2]; phase of proliferation (14-28 days)): high activity of acid phosphatase in histiocytes
Terms of complete clearance of the wound surface from necrotizing tissues [2, 3]: 14.2 + −1.3* days
Terms of the wound epithelization [2, 3]: 24.9 + −1.9* days
Terms of tile onset of necrotizing tissue rejection form the wound surface [2, 3]: 8.3 + −1.1*
Fibroblasts [2, 4]: 4*
Histiocytes [2, 4]: 4
Leukocyles [2, 4]: 5
Macrophases [2, 4]: 3
Necrosis [2, 4]: 3*
Fibroblasts [2, 5]: 5*
Histiocytes [2, 5]: 5*
Leukocyles [2, 5]: 5
Macrophases [2, 5]: 3
Necrosis [2, 5]: 2*
Fibroblasts [2, 6]: 5
Histiocytes [2, 6]: 5
Leukocyles [2, 6]: 4
Macrophases [2, 6]: 2
Necrosis [2, 6]: 2*
Fibroblasts [2, 7]: 5
Histiocytes [2, 7]: 4
Leukocyles [2, 7]: 4*
Macrophases [2, 7]: 2
Necrosis [2, 7]: 1
Fibroblasts [2, 8]: 6*
Histiocytes [2, 8]: 6*
Leukocyles [2, 8]: 2
Macrophases [2, 8]: 2*
Necrosis [2, 8]: 1
activity of alkaline phosphatase in foci of leukocytory infiltration and vascular endothelium ([2]; rabbits, wound tissue): high activity of alkaline phophotase
% of cells in the phase of DNA synthesis (regenerating liver cells; [9]): 3.882 ± 0.8391″ %
Mitotic index (regenerating liver cells; [9]): 2.314 ± 0.4611 %
Total number of dividing cells (regenerating liver cells; [9]): 6.196 ± 1.279 %
increasing number of mitoses, DNA-synthesizing cells and overall amount of dividing cells (regenerating liver cells; 32 hours after partial hepatectomy): does become trustworthy
% of cells in the phase of DNA synthesis (regenerating liver cells; [10]): 0.870 ± 0.100%
Total number of dividing cells (regenerating liver cells; [10]): 1.320 ± 0.159%
Mitotic index (regenerating liver cells; 32 hours group, Before (pre-operation index), % of the total number of liver cells): 0.450 ± 0.067%
% of cells in the phase of DNA synthesis (regenerating liver cells; [11]): 4.664 ± 1.315 %
Mitotic index (regenerating liver cells; [11]): 4.846 ± 0.334*& %
Total number of dividing cells (regenerating liver cells; [11]): 9.510 ± 1.609 %
number of cells in the S-phase compared to the second (control) group (regenerating liver cells; 96 hours after hepatectomy): did not differ reliably
number of dividing cells bigger than with rats injected with the sodium hydrochloride (regenerating liver cells; 96 hours after hepatectomy): 75%
number of mitoses compared to rats injected with the sodium hydrochloride (regenerating liver cells; 96 hours after hepatectomy): twice as big
% of cells in the phase of DNA synthesis (regenerating liver cells; [12]): 0.982 ± 0.141%
Mitotic index (regenerating liver cells; [12]): 0.294 ± 0.084%
